Structures can show the parent of a compound that is named as a salt. Where two headings read alike, the source gives them in different places.
Experiments:
Assay in all cases: AK assay 384-well format, Prestwick library screening
[1] = tested on: E. faecium; type: cell-based, Enterococcus faecium; settings: 50 μM final drug concentration; for fold induction at 50 µM: Enterococcus faecium, 3 h
[2] = tested on: S. aureus strain USA300-0114; type: cell-based, Staphylococcus aureus; settings: 50 μM final drug concentration; for fold induction at 50 µM: Staphylococcus aureus, USA300, 3 h
[3] = tested on: K. pneumoniae; type: cell-based, Klebsiella pneumoniae; settings: 50 μM final drug concentration; for fold induction at 50 µM: Klebsiella pneumoniae, 3 h
[4] = tested on: A. baumannii strain 98-37-09; type: cell-based, Acinetobacter baumannii; settings: 50 μM final drug concentration; for fold induction at 50 µM: Acinetobacter baumannii, 983709, 3 h
[5] = tested on: P. aeruginosa; type: cell-based, Pseudomonas aeruginosa; settings: 50 μM final drug concentration; for fold induction at 50 µM: Pseudomonas aeruginosa, 3 h
[6] = tested on: E. cloacae; type: cell-based, Enterobacter cloacae; settings: 50 μM final drug concentration; for fold induction at 50 µM: Enterobacter cloacae, 3 h
[7] = tested on: E. coli; type: cell-based, Escherichia coli; settings: 50 μM final drug concentration; for fold induction at 50 µM: Escherichia coli, 3 h
[8] = planktonic, cutoff for positive 3-fold increase
[9] = cutoff for positive-scoring molecules 3-fold increase
[10] = cutoff for positive-scoring molecules 3-fold increase, read-out: AK-based Prestwick Library Screening Results, E. faecium (fold increase in extracellular AK activity)
[11] = cutoff for positive-scoring molecules 3-fold increase, read-out: AK-based Prestwick Library Screening Results, S. aureus (fold increase in extracellular AK activity)
[12] = cutoff for positive-scoring molecules 3-fold increase, read-out: AK-based Prestwick Library Screening Results, K. pneumoniae (fold increase in extracellular AK activity)
[13] = cutoff for positive-scoring molecules 3-fold increase, read-out: AK-based Prestwick Library Screening Results, A. baumannii (fold increase in extracellular AK activity)
[14] = cutoff for positive-scoring molecules 3-fold increase, read-out: AK-based Prestwick Library Screening Results, P. aeruginosa (fold increase in extracellular AK activity)
[15] = cutoff for positive-scoring molecules 3-fold increase, read-out: AK-based Prestwick Library Screening Results, E. cloacae (fold increase in extracellular AK activity)
[16] = cutoff for positive-scoring molecules 3-fold increase, read-out: AK-based Prestwick Library Screening Results, E. coli (fold increase in extracellular AK activity)
[17] = planktonic E. faecium, 384-well, cutoff for positive-scoring molecules 3-fold increase, read-out: AK-based Prestwick Library Screening Results: E. faecium (increase in extracellular AK activity)
[18] = planktonic S. aureus, 384-well, cutoff for positive-scoring molecules 3-fold increase, read-out: AK-based Prestwick Library Screening Results: S. aureus (increase in extracellular AK activity)
[19] = planktonic K. pneumoniae, 384-well, cutoff for positive-scoring molecules 3-fold increase, read-out: AK-based Prestwick Library Screening Results: K. pneumoniae (increase in extracellular AK activity)
[20] = planktonic A. baumannii, 384-well, cutoff for positive-scoring molecules 3-fold increase, read-out: AK-based Prestwick Library Screening Results: A. baumannii (increase in extracellular AK activity)
[21] = planktonic P. aeruginosa, 384-well, cutoff for positive-scoring molecules 3-fold increase, read-out: AK-based Prestwick Library Screening Results: P. aeruginosa (increase in extracellular AK activity)
[22] = planktonic E. cloacae, 384-well, cutoff for positive-scoring molecules 3-fold increase, read-out: AK-based Prestwick Library Screening Results: E. cloacae (increase in extracellular AK activity)
[23] = planktonic E. coli, 384-well, cutoff for positive-scoring molecules 3-fold increase, read-out: AK-based Prestwick Library Screening Results: E. coli (increase in extracellular AK activity)
[24] = 384-well format, cutoff for positive-scoring molecules 3-fold increase, read-out: AK-based Prestwick Library Screening Results, E. faecium (increase in extracellular AK activity)
[25] = 384-well format, cutoff for positive-scoring molecules 3-fold increase, read-out: AK-based Prestwick Library Screening Results, S. aureus (increase in extracellular AK activity)
[26] = 384-well format, cutoff for positive-scoring molecules 3-fold increase, read-out: AK-based Prestwick Library Screening Results, K. pneumoniae (increase in extracellular AK activity)
[27] = 384-well format, cutoff for positive-scoring molecules 3-fold increase, read-out: AK-based Prestwick Library Screening Results, A. baumannii (increase in extracellular AK activity)
[28] = 384-well format, cutoff for positive-scoring molecules 3-fold increase, read-out: AK-based Prestwick Library Screening Results, P. aeruginosa (increase in extracellular AK activity)
[29] = 384-well format, cutoff for positive-scoring molecules 3-fold increase, read-out: AK-based Prestwick Library Screening Results, E. cloacae (increase in extracellular AK activity)
[30] = 384-well format, cutoff for positive-scoring molecules 3-fold increase, read-out: AK-based Prestwick Library Screening Results, E. coli (increase in extracellular AK activity)

N[C@H]1CONC1=O [(S)-(−)-Cycloserine]
AK-based Prestwick library screening result, E. faecium (fold increase in extracellular AK activity) ([1]; planktonic E. faecium, positive cutoff 3-fold increase): 1.1 | AK-based Prestwick library screening result, S. aureus (fold increase in extracellular AK activity) ([2]; planktonic S. aureus, positive cutoff 3-fold increase): 1.1 | AK-based Prestwick library screening result, K. pneumoniae (fold increase in extracellular AK activity) ([3]; planktonic K. pneumoniae, positive cutoff 3-fold increase): 1.0 | AK-based Prestwick library screening result, A. baumannii (fold increase in extracellular AK activity) ([4]; planktonic A. baumannii, positive cutoff 3-fold increase): 1.1 | AK-based Prestwick library screening result, P. aeruginosa (fold increase in extracellular AK activity) ([5]; planktonic P. aeruginosa, positive cutoff 3-fold increase): 1.1 | AK-based Prestwick library screening result, E. cloacae (fold increase in extracellular AK activity) ([6]; planktonic E. cloacae, positive cutoff 3-fold increase): 1.6 | AK-based Prestwick library screening result, E. coli (fold increase in extracellular AK activity) ([7]; planktonic E. coli, positive cutoff 3-fold increase): 1.3

COc1ccc2c(c1OC)CN1CCc3cc4c(cc3C1C2)OCO4 (centres unmarked) [(d,l)-Tetrahydroberberine]
AK-based Prestwick Library Screening Results, E. faecium (fold increase in extracellular AK activity) ([1]; planktonic, […]): 0.9 | AK-based Prestwick Library Screening Results, S. aureus (fold increase in extracellular AK activity) ([2]; planktonic, […]): 0.7 | AK-based Prestwick Library Screening Results, K. pneumoniae (fold increase in extracellular AK activity) ([3]; planktonic, […]): 0.7 | AK-based Prestwick Library Screening Results, A. baumannii (fold increase in extracellular AK activity) ([4]; planktonic, […]): 0.9 | AK-based Prestwick Library Screening Results, P. aeruginosa (fold increase in extracellular AK activity) ([5]; planktonic, […]): 0.8 | AK-based Prestwick Library Screening Results, E. cloacae (fold increase in extracellular AK activity) ([6]; planktonic, […]): 1.3 | AK-based Prestwick Library Screening Results, E. coli (fold increase in extracellular AK activity) ([7]; planktonic, […]): 0.8

C=C[C@H]1CN2CC[C@H]1C[C@H]2[C@H](O)c1ccnc2ccccc12 [(−)-Cinchonidine]
AK-based Prestwick Library Screening Results, E. faecium (fold increase in extracellular AK activity) [1, 8]: 1.0 | AK-based Prestwick Library Screening Results, S. aureus (fold increase in extracellular AK activity) [2, 8]: 0.9 | AK-based Prestwick Library Screening Results, K. pneumoniae (fold increase in extracellular AK activity) [3, 8]: 0.8 | AK-based Prestwick Library Screening Results, A. baumannii (fold increase in extracellular AK activity) [4, 8]: 1.1 | AK-based Prestwick Library Screening Results, P. aeruginosa (fold increase in extracellular AK activity) [5, 8]: 1.1 | AK-based Prestwick Library Screening Results, E. cloacae (fold increase in extracellular AK activity) [6, 8]: 1.6 | AK-based Prestwick Library Screening Results, E. coli (fold increase in extracellular AK activity) [7, 8]: 1.3

CC(C)(C)NC[C@H](O)COc1cccc2c1CCCC2=O.Cl [(−)-Levobunolol hydrochloride]
AK-based Prestwick Library Screening Results, E. faecium (fold increase in extracellular AK activity) [1, 9]: 1.0 | AK-based Prestwick Library Screening Results, S. aureus (fold increase in extracellular AK activity) [2, 9]: 1.0 | AK-based Prestwick Library Screening Results, K. pneumoniae (fold increase in extracellular AK activity) [3, 9]: 1.0 | AK-based Prestwick Library Screening Results, A. baumannii (fold increase in extracellular AK activity) [4, 9]: 1.0 | AK-based Prestwick Library Screening Results, P. aeruginosa (fold increase in extracellular AK activity) [5, 9]: 1.2 | AK-based Prestwick Library Screening Results, E. cloacae (fold increase in extracellular AK activity) [6, 9]: 1.9 | AK-based Prestwick Library Screening Results, E. coli (fold increase in extracellular AK activity) [7, 9]: 1.3

COc1ccc(-c2cc(=O)c3c(O)cc(O)cc3o2)cc1 [Acacetin]
fold induction at 50 µM [1, 10]: 0.5 | fold induction at 50 µM [2, 11]: 0.7 | fold induction at 50 µM [3, 12]: 0.6 | fold induction at 50 µM [4, 13]: 0.3 | fold induction at 50 µM [5, 14]: 0.6 | fold induction at 50 µM [6, 15]: 1.6 | fold induction at 50 µM [7, 16]: 0.7

CCCC(=O)Nc1ccc(OCC(O)CNC(C)C)c(C(C)=O)c1 (centres unmarked) [Acebutolol hydrochloride]
fold induction at 50 µM [1, 17]: 1.1 | fold induction at 50 µM [2, 18]: 1.1 | fold induction at 50 µM [3, 19]: 0.9 | fold induction at 50 µM [4, 20]: 1.3 | fold induction at 50 µM [5, 21]: 1.1 | fold induction at 50 µM [6, 22]: 1.2 | fold induction at 50 µM [7, 23]: 1.3

O=C(O)COC(=O)Cc1ccccc1Nc1c(Cl)cccc1Cl [Aceclofenac]
fold induction at 50 µM [1, 24]: 1 | fold induction at 50 µM [2, 25]: 0.7 | fold induction at 50 µM [3, 26]: 0.6 | fold induction at 50 µM [4, 27]: 0.7 | fold induction at 50 µM [5, 28]: 0.8 | fold induction at 50 µM [6, 29]: 0.8 | fold induction at 50 µM [7, 30]: 0.7

COc1ccc2c(c1)c(CC(=O)OCC(=O)O)c(C)n2C(=O)c1ccc(Cl)cc1 [Acemetacin]
fold induction at 50 µM [1, 17]: 1 | fold induction at 50 µM [2, 18]: 1.1 | fold induction at 50 µM [3, 19]: 0.9 | fold induction at 50 µM [4, 20]: 1.1 | fold induction at 50 µM [5, 21]: 1.1 | fold induction at 50 µM [6, 22]: 1.3 | fold induction at 50 µM [7, 23]: 1.2

CC(=O)CC(c1ccc([N+](=O)[O-])cc1)c1c(O)c2ccccc2oc1=O (centres unmarked) [Acenocoumarol]
fold induction at 50 µM [1, 24]: 1 | fold induction at 50 µM [2, 25]: 0.8 | fold induction at 50 µM [3, 26]: 0.7 | fold induction at 50 µM [4, 27]: 0.8 | fold induction at 50 µM [5, 28]: 0.9 | fold induction at 50 µM [6, 29]: 0.9 | fold induction at 50 µM [7, 30]: 0.9

CC(=O)Nc1ccc(O)cc1 [Acetaminophen]
fold induction at 50 µM [1, 10]: 1 | fold induction at 50 µM [2, 11]: 1.6 | fold induction at 50 µM [3, 12]: 1.2 | fold induction at 50 µM [4, 13]: 1.5 | fold induction at 50 µM [5, 14]: 1.1 | fold induction at 50 µM [6, 15]: 1.6 | fold induction at 50 µM [7, 16]: 1.4

CC(=O)Nc1nnc(S(N)(=O)=O)s1 [Acetazolamide]
fold induction at 50 µM [1, 24]: 0.9 | fold induction at 50 µM [2, 25]: 0.4 | fold induction at 50 µM [3, 26]: 0.4 | fold induction at 50 µM [4, 27]: 0.4 | fold induction at 50 µM [5, 28]: 0.3 | fold induction at 50 µM [6, 29]: 0.3 | fold induction at 50 µM [7, 30]: 0.4

CC(=O)c1ccc(S(=O)(=O)NC(=O)NC2CCCCC2)cc1 [Acetohexamide]
fold induction at 50 µM [1, 17]: 0.9 | fold induction at 50 µM [2, 18]: 1.1 | fold induction at 50 µM [3, 19]: 0.8 | fold induction at 50 µM [4, 20]: 1.1 | fold induction at 50 µM [5, 21]: 1.2 | fold induction at 50 µM [6, 22]: 1.7 | fold induction at 50 µM [7, 23]: 1.2

CC(=O)c1ccc2c(c1)N(CCCN(C)C)c1ccccc1S2.O=C(O)/C=C\C(=O)O [Acetopromazine maleate salt]
AK-based Prestwick Library Screening Results, E. faecium (increase in extracellular AK activity) ([1]; planktonic E. faecium, cutoff for positive-scoring molecules 3-fold increase): 1.0 | AK-based Prestwick Library Screening Results, S. aureus (increase in extracellular AK activity) ([2]; planktonic S. aureus, cutoff for positive-scoring molecules 3-fold increase): 0.8 | AK-based Prestwick Library Screening Results, K. pneumoniae (increase in extracellular AK activity) ([3]; planktonic K. pneumoniae, cutoff for positive-scoring molecules 3-fold increase): 0.6 | AK-based Prestwick Library Screening Results, A. baumannii (increase in extracellular AK activity) ([4]; planktonic A. baumannii, cutoff for positive-scoring molecules 3-fold increase): 0.8 | AK-based Prestwick Library Screening Results, P. aeruginosa (increase in extracellular AK activity) ([5]; planktonic P. aeruginosa, cutoff for positive-scoring molecules 3-fold increase): 0.7 | AK-based Prestwick Library Screening Results, E. cloacae (increase in extracellular AK activity) ([6]; planktonic E. cloacae, cutoff for positive-scoring molecules 3-fold increase): 0.8 | AK-based Prestwick Library Screening Results, E. coli (increase in extracellular AK activity) ([7]; planktonic E. coli, cutoff for positive-scoring molecules 3-fold increase): 0.8

CC(=O)Oc1ccccc1C(=O)Oc1ccccc1C(=O)O [Acetylsalicylsalicylic acid]
fold induction at 50 µM [1, 24]: 1 | fold induction at 50 µM [2, 25]: 0.7 | fold induction at 50 µM [3, 26]: 0.6 | fold induction at 50 µM [4, 27]: 0.7 | fold induction at 50 µM [5, 28]: 0.6 | fold induction at 50 µM [6, 29]: 0.8 | fold induction at 50 µM [7, 30]: 0.6
